Assays:
[1] = test system: hypothalamus (ATP content); test: ATP content in hypothalamic slice punches after ICV injection in rats; type: in vivo, rat; conditions: rats on normal (ad lib) diet, ICV 40 nmoles, punches 24 hours later, P<0.05
Description: In several experiments, to determine subsequent effects on food intake, hypothalamic Na/K ATPase activity or ATP content, the animals were administered the test compounds by ICV injection. Animals were anesthetized with sodium barbiturate (6 mg/100 g BW). Under stereotaxic fixation (David Kopf), with aseptic technique, a 25 ul Hamilton micro syringe (Reno, Nev.) needle tip was inserted according to the published references: 2 mm lateral to the middline at the bregma; −4.3 mm to the bregma; 5.5 mm deep to the dura; −1.3 mm with the shaft inclined medially at 13° […]. to the vertical. […] All injections were calculated and expressed in absolute amount, i.e. nmoles. […]
Following extraction, the content of ATP in these slice punches was measured by the Enliten™ ATP Assay system (see below). […]
As described above, hypothalamic tissues after removal or removal/incubation were transferred to 1.5 ml Eppendorf tubes with 50 μl TCA (5%) and immediately homogenated with a plastic homogenizer. […] ATP was measured according to the kit protocol. […] Light photons were measured by a luminometer and were compared with an ATP standard curve to calculate ATP concentration. […] ATP content is expressed as moles per mg protein for tissue samples, moles per 5 mg tissue for section punches, and as moles per neuron culture well; expressed in appropriate quantitative units for each experiment. […]

Na/K ATPase [2] = test: 86-Rubidium uptake in cultures of fetal rat hypothalamic neurons; type: cell-based; conditions: for effect on ouabain inhibition of 86-Rb uptake: preincubated 10 min, then ouabain 1000 nM
[3] = test system: hypothalamus (ATP content); conditions: rats treated with supraphysiological doses of triiodothyronine (T3), ICV; cited from earlier work
[4] = test system: fetal rat hypothalamic neurons; test: ATP content in cultured fetal hypothalamic neurons (Enliten ATP Assay); type: cell-based; conditions: for increase of ATP content: 30 minute incubation in vitro
rats (food intake) [5] = test: Effect of ICV or i.p. administration of test compounds on rat food intake
[6] = test system: ATP-sensitive K+ channels; test: Electrophysiological recordings in hypothalamic slices (glucose sensitive neurons); type: cell-based; conditions: hypothalamic slice recordings
ouabain receptors = test: 3H-ouabain binding in cultured fetal rat hypothalamic neurons (whole cell); conditions: whole cell hypothalamic culture
Excerpt: This binding was unaffected and in some experiments appeared to actually increase during exposure to Compound (1). Compound (2) was not tested.

Na/K ATPase [7] = test: 86-Rubidium uptake into incubated rat hypothalamic slice punches; type: cell-based; conditions: for effect of agent alone on 86Rb uptake: Compound (1) at up to 5000 nM
Description: The whole brain was removed from the skull and inserted into a Precision Brain Slicer (RMB 3000C, Braintree Scientific INC.). As scaled from the rear, a brain slice was removed between the 8 and 10 scale (about 2 mm). The medial-basal hypothalamus was punched using a round mouth #18 1 mm diameter needle with attached syringe. The tissue included most of arcuate nucleus of the hypothalamus and a small part of nucleus paremamillaris ventralis. The tissue was pushed into 0.5 ml DMEM medium in a 24 well cell culture plate. Following preincubation at 37° C., in air/5% CO2 for 30 min., concentrations of test Compound were added for an additional 30 min. Finally, 86-rubidium- (^86Rb) 1 μCi was added to each well for 20 minutes at room temperature. The tissue was then transferred to tubes with a protein dialysis solution to dissolve protein. Five (5) ml scintillation liquid was added to each tube and the photoemissions determined in a β-counter (Beckman).

Na/K ATPase [8] = test: Competitive binding / Na/K ATPase activity in membrane concentrates from brain, kidney and gut; type: biochemical
rats (food intake) [9] = conditions: ICV, depending on dose

## C/C=C(\C)C(=O)O[C@@H]1CC2C(CC=C3C[C@@H](OC4CC(OC)C(OC5CC(OC)C(OC6OC(C)C(O)C(OC)C6O)C(C)O5)C(C)O4)CC[C@@]32C)[C@@]2(O)CC[C@H](C(C)=O)[C@@]12C (stereo partly drawn) [Compound (1), tri-rhabinoside, 14-0H, 12-tigloyl pregnane steroidal glycoside]
[1]
  effect on hypothalamic ATP content: increased hypothalamic ATP content
Na/K ATPase [2]; hypothalamic neuron culture
  effect of agent alone on 86-Rb uptake: had no effect
  effect on ouabain inhibition of 86-Rb uptake: significantly reduced the inhibition
Na/K ATPase [2]; hypothalamic neuron culture, ouabain 1000 nM
  concentrations at which reduction of ouabain inhibition of 86-Rb uptake was observed: 5 to 500 nM
[3]
  effect on apparent hypothalamic ATP deficit: partially reversed
[4]; 500 nM alone
  increase of ATP content: up to 2 fold
[4]; 500 nM in combination with ouabain
  increase of ATP content: up to 2 fold
Rats (food intake) [5]; 20 nmoles administered once i.p. (data not shown)
  effect on food intake after i.p. injection: did not significantly reduce food intake
Rats (food intake) [5]; ICV, 0.04 nmoles
  effect on food intake at lowest dose: significant but relatively minor effect
[6]
  effect on ATP-sensitive K+ channels: activate (close)
Ouabain receptors
  effect on tritiated (3H) ouabain binding: unaffected
Na/K ATPase [7]
  effect of agent alone on 86Rb uptake: had no effect
Na/K ATPase [7]; with ouabain
  effect on the inhibitory effect of ouabain on 86Rb uptake: almost completely blocked
Na/K ATPase [8]
  binding to / inhibition of activity of membrane extracts enriched with Na/K ATPase: does not bind to or inhibit activity
Rats (food intake) [9]
  duration of effect on food intake: 24 to 48 h

## C/C=C(\C)C(=O)O[C@@H]1CC2C(CC=C3C[C@@H](O)CC[C@@]32C)[C@@]2(O)CC[C@H](C(C)=O)[C@@]12C (stereo partly drawn) [Compound (2)]
Na/K ATPase [2]; hypothalamic neuron culture
  effect on ouabain inhibition of 86-Rb uptake: had no effect
Rats (food intake) [5]; ICV, approximately 40 nmoles in DMSO
  effect on subsequent 24 hour food intake: altered subsequent 24 hour food intake

## C[C@@H]1O[C@@H](O[C@H]2C[C@@H](O)[C@]3(CO)[C@H]4[C@H](O)C[C@]5(C)[C@@H](C6=CC(=O)OC6)CC[C@]5(O)[C@@H]4CC[C@]3(O)C2)[C@H](O)[C@H](O)[C@H]1O [Ouabain, ouabain, reference compound]
Na/K ATPase [2]; fetal rat hypothalamic neuron culture, 10 to 100,000 nM tested, approximate, read-out: IC50 for 86Rb uptake
  IC50: […]
Na/K ATPase [2]; hypothalamic neuron culture
  effect of agent alone on 86-Rb uptake: […]
[4]; hypothalamic culture, ouabain alone
  effect on ATP content: had no effect or slightly reduced ATP content
Rats (food intake) [5]; ICV, approximately 8 nmoles in 4 μl DMSO
  behavioural effect observed: motor hyperactivity
Rats (food intake) [5]; ICV, approximately 8 nmoles in 4 μl DMSO (results not shown)
  effect on food intake: no consistent effect on food intake
Ouabain receptors
  effect on tritiated (3H) ouabain binding: specifically inhibited
Na/K ATPase [7]
  effect of agent alone on 86Rb uptake: inhibited
